According to publication PMC7598997, “Synthesis and evaluation of anticancer activities of 2- or 4-substituted 3-(N-benzyltriazolylmethyl)-13α-oestrone derivatives” (Journal of Enzyme Inhibition and Medicinal Chemistry, 2020):

Assays:
tubulin [1] = conditions: cited from earlier work
steroid sulfatase, STS = test system: steroid sulfatase, STS; design: method as in PMID 30230387; conditions: cited from earlier work
[2] = molecular target: 17β-hydroxysteroid dehydrogenase 1, 17β-HSD1; conditions: read-out: 17β-HSD1 inhibition IC50; cited from earlier work
A2780 cell line = test system: A2780 cell line; design: method as in PMID 27263437; conditions: described earlier ref 16; cited from earlier work
MCF-7 cell line = test system: MCF-7 cell line; design: method as in PMID 27263437; conditions: described earlier ref 16; cited from earlier work
HeLa cells [3] = test system: HeLa cells; design: method as in PMID 27363663; conditions: HeLa cells ref 15; cited from earlier work
HeLa cells [4] = test system: HeLa cells; design: method as in PMID 27363663; conditions: HeLa cells ref 15; cited from earlier work; remark: listed apart in the source
OATP2B1 = test system: OATP2B1; design: method as in PMID 30498534; conditions: read-out: OATP2B1 inhibition IC50; cited from earlier work
tested cell lines = test system: tested cell lines; design: method as in PMID 27263437; conditions: described earlier ref 16; cited from earlier work
[5] = test system: non-cancerous mouse embryo fibroblast cell line NIH/3T3; assay: MTT assay for cancer selectivity, NIH/3T3; format: cell-based
Method: (§1) The antiproliferative properties of the newly synthesised triazoles (11a,b–15a,b) were determined on a panel of human adherent cancer cell lines of gynaecological origin. MCF-7 and MDA-MB-231 were isolated from breast cancers differing in biochemical background, while A2780 cells were isolated from ovarian cancer. The cancer selectivity of compound 12a was tested on the non-cancerous mouse embryo fibroblast cell line NIH/3T3. All cell lines were purchased from European Collection of Cell Cultures (ECCAC, Salisbury, UK). Cells were cultivated in minimal essential medium supplemented with 10% foetal bovine serum, 1% non-essential amino acids and an antibiotic–antimycotic mixture. All media and supplements were obtained from Lonza Group Ltd., Basel, Switzerland. Near-confluent cancer cells were seeded onto a 96-well microplate (5000 cells/well) and, after overnight standing, 200 µL new medium, containing the tested compounds at 10 and 30 µM, was added. After incubation for 72 h at 37 °C in humidified air containing 5% CO2, the living cells were assayed by the addition of 20 µL of 5 mg/ml 3-(4,5-dimethylthiazol-2-yl)-2,5-diphenyltetrazolium bromide (MTT) solution. MTT was converted by intact mitochondrial reductase and precipitated as purple crystals during a 4-h contact period. The medium was next removed and the precipitated formazan crystals were dissolved in 100 µL of DMSO during a 60-min period of shaking at 37 ^оC.
(§2) Finally, the reduced MTT was assayed at 545 nm, using a microplate reader utilising wells with untreated cells serving as control. […] All in vitro experiments were carried out on two microplates with at least five parallel wells. Stock solutions of the tested substances (10 mM) were prepared in DMSO. […] Cisplatin (Ebewe Pharma GmbH, Unterach, Austria) was used as positive control.

MDA-MB-231 cells = assay: MTT antiproliferative assay, MDA-MB-231; format: cell-based, human; conditions: Homo sapiens, MTT
Method: as §1, §2

tubulin [6] = assay: cell-free in vitro tubulin polymerisation assay; format: biochemical; conditions: vs untreated control
Method: The effect of brominated triazole (12a) on tubulin polymerisation was tested with the HTS-Tubulin Polymerisation Assay Biochem Kit (Bio-Kasztel Ltd., Budapest, Hungary) according to the manufacturer’s recommendations. Briefly, 10 µl of a 0.125 or 0.25 mM solution of the test compound (12a) was placed on a prewarmed (37 °C), UV-transparent microplate. About 10 µl 10 µM paclitaxel and 10 µl General Tubulin Buffer were used as positive and negative control, respectively. 100 µl 3.0 mg/ml tubulin in 80 mM PIPES pH 6.9, 2 mM MgCl2, 0.5 mM EGTA, 1 mM GTP was added to each sample, and the microplate was immediately placed into a prewarmed (37 °C) UV-spectrophotometer (SpectoStarNano, BMG Labtech, Ortenberg, Germany) to start the recording reaction. A 60-min kinetic measurement protocol was applied to determine the absorbance of the reaction solution per minute at 340 nm. For the evaluation of the experimental data, the maximum reaction rate (Vmax: Δabsorbance/min) was calculated. Moving averages of absorbances determined at three consecutive timepoints were calculated and the highest difference between two succeeding moving averages was taken as the Vmax of the tested compound in the tubulin polymerisation reaction. Each sample was prepared in two parallels and the measurements were repeated twice. For statistical evaluation, Vmax data were analysed by the one-way ANOVA test with the Newmann–Keuls post-test by using Prism 4.01 software (GraphPad Software, San Diego, CA).

A2780 cells = assay: MTT antiproliferative assay, A2780; format: cell-based, human; conditions: Homo sapiens, MTT
Method: as §1, §2

MCF-7 cells = assay: MTT antiproliferative assay, MCF-7; format: cell-based, human; conditions: Homo sapiens, MCF7, MTT
Method: as §1, §2

COc1cc2c(cc1O)CC[C@@H]1[C@@H]2CC[C@]2(C)[C@@H](O)CC[C@@H]12 [2-methoxyestradiol]
effect on tubulin polymerisation (tubulin [1]): inhibit tubulin polymerisation

C[C@@]12CC[C@@H]3c4ccc(O)c(Br)c4CC[C@H]3[C@@H]1CCC2=O [Compound 6]
STS inhibition (steroid sulfatase, STS): dual STS and 17β-HSD1 inhibition
IC50 [2]: ~1000 nM

C[C@@]12CC[C@@H]3c4ccc(OCc5cn(Cc6ccccc6)nn5)cc4CC[C@H]3[C@@H]1CCC2=O [Compound 4a, 3-[{1-benzyl-1H-1,2,3-triazol-4-yl}methoxy]-13α-estra-1,3,5(10)-trien-17-one]
IC50 (A2780 cell line): 500 to 600 nM
IC50 (MCF-7 cell line): 500 to 600 nM

C[C@@]12CC[C@@H]3c4cc(Br)c(O)cc4CC[C@H]3[C@@H]1CCC2=O [Compound 5]
IC50 [2]: ~1000 nM

CCC[C@H]1[C@@H]2CCc3cc(OCc4cn(Cc5ccccc5)nn4)ccc3[C@H]2CC[C@]1(C)CO [Compound 3]
migration and invasion (HeLa cells [3]): inhibits the migration and invasion
maximum rate of microtubule formation (tubulin [1]): significantly increases the maximum rate of microtubule formation
cell cycle effect (HeLa cells [4]): cell cycle arrest at G2/M

CCOP(=O)(OCC)c1cc2c(cc1O)CC[C@@H]1[C@@H]2CC[C@@]2(C)C(=O)CC[C@@H]12 [Compound 7]
IC50 (OATP2B1): 1000 to 2000 nM
IC50 [2]: 1000 to 2000 nM

CCOP(=O)(OCC)c1cc2c(cc1OCc1ccccc1)CC[C@@H]1[C@@H]2CC[C@@]2(C)C(=O)CC[C@@H]12 [Compound 8]
IC50 (OATP2B1): 200 nM

CC(C)(C)c1ccc(Cn2cc(COc3ccc4c(c3)CC[C@@H]3[C@@H]4CC[C@@]4(C)C(=O)CC[C@@H]34)nn2)cc1 [Compound 4b, 3-[{1-(4-tert-butylbenzyl)-1H-1,2,3-triazol-4-yl}methoxy]-13α-estra-1,3,5(10)-trien-17-one]
influence on the growth of the tested cell lines (tested cell lines): did not have marked influence on the growth

C[C@@]12CC[C@@H]3c4ccc(OCc5cn(Cc6ccccc6)nn5)c(Br)c4CC[C@H]3[C@@H]1CCC2=O [Compound 12a, 3-[{1-benzyl-1H-1,2,3-triazol-4-yl}methoxy]-4-bromo-13α-estra-1,3,5(10)-trien-17-one]
inhibition at 10 µM ([5]; NIH3T3, NIH/3T3, 10 µM, MTT, read-out: inhibition of cell growth): 28.7 ± 1.26%
inhibition at 30 µM ([5]; NIH3T3, NIH/3T3, 30 µM, MTT, read-out: inhibition of cell growth): 37.9 ± 0.75%
IC50 ([5]; NIH3T3, NIH/3T3, MTT): > 30000 nM
inhibition at 10 µM (MDA-MB-231 cells; MDA-MB-231, 10 µM, 72 h, read-out: Inhibition (%) ± SEM): 52.9 ± 1.32%
inhibition at 30 µM (MDA-MB-231 cells; MDA-MB-231, 30 µM, 72 h, read-out: Inhibition (%) ± SEM): 53.8 ± 2.43%
IC50 (MDA-MB-231 cells; MDA-MB-231, 72 h, read-out: calculated IC50): 8800 nM
maximum rate of tubulin polymerisation (Vmax) (tubulin [6]; 125 µM test compound): increased
maximum rate of tubulin polymerisation (Vmax) (tubulin [6]; 250 µM test compound): increased by our test compound which was significant
inhibition at 10 µM (A2780 cells; A2780, 10 µM, 72 h, read-out: Inhibition (%) ± SEM): 93.16 ± 0.47%
inhibition at 30 µM (A2780 cells; A2780, 30 µM, 72 h, read-out: Inhibition (%) ± SEM): 95.43 ± 0.42%
IC50 (A2780 cells; A2780, 72 h, read-out: calculated IC50): 550 nM
melting point: 188 to 190 °C
inhibition at 10 µM (MCF-7 cells; MCF-7, 10 µM, 72 h, read-out: Inhibition (%) ± SEM): 42 ± 0.97%
inhibition at 30 µM (MCF-7 cells; MCF-7, 30 µM, 72 h, read-out: Inhibition (%) ± SEM): 52.5 ± 0.94%
IC50 (MCF-7 cells; MCF-7, 72 h, read-out: calculated IC50): 12700 nM
